Experimental data reported in patent publication US20100249231A1, “HSP90 Inhibitors of Protein-Protein Interaction HSP90 Chaperone Complexes and Therapeutic Uses Thereof” (THE OHIO STATE UNIVERSITY RESEARCH FOUNDATION, priority 2007, published 2010).
Peptide text beside a SMILES is read from it. * marks the point of attachment. Cbz = O=C(OCc1ccccc1)*

Assays:
[1] = test system: Akt; test: Western blot of Hsp90 client protein Akt in Panc-1 cells; type: cell-based, human; settings: for level of Akt protein: 10 μM proteasome inhibitor, 24 h
Method: (§1) The levels of Akt and Cdk4, two well-known Hsp90 clients, were measured. Celastrol decreased the protein levels of Akt and Cdk4 in a concentration- and time-dependent manner.
(§2) Western Blot. The general procedure for the Western blot analysis was briefly described as follows. After drug treatment, cells were washed twice with ice-cold phosphate-buffered saline (PBS), scraped into lysis buffer (20 mM Tris, pH 7.5, 1% Nonidet P-40, 150 mM NaCl, 5 mM EDTA, 1 mM Na3VO4) supplemented with a protease inhibitor mixture (Sigma, added at a 1:100 dilution), and incubated on ice for 20 min. The lysate was then centrifuged at 14,000×g for 10 min. Equal amounts of total protein were subjected to SDS-PAGE and transferred onto nitrocellulose membranes and probed with appropriate antibodies.

[2] = test system: Cdk4; test: Western blot of Hsp90 client protein Cdk4 in Panc-1 cells; type: cell-based, human; settings: for level of Cdk4 protein: 10 μM proteasome inhibitor, 24 h
Method: as §1, §2

[3] = test system: Hsp90; test: Western blot of Hsp90 protein levels; type: cell-based, human
Method: as §2

[4] = test system: RIP1-Tag2 transgenic pancreatic cancer mouse model; test: RIP1-Tag2 transgenic pancreatic cancer mouse model; type: in vivo, mice
Excerpt: To further evaluate the anticancer efficacy of celastrol against pancreatic cancer, the inventors utilized celastrol to inhibit tumor growth in a RIP1-Tag2 transgenic pancreatic cancer mouse model. In this mouse model, hyperplastic islets begin to appear by 3-4 weeks of age, and solid tumors emerge in pancreas at about 8-9 weeks. The cancer will metastasized into other sites such as mesenterium in the peritoneal cavity from 10-12 weeks.
RIP1-Tag2 Transgenic Mouse Model. RIP1-Tag2 transgenic mice used contained the insulin promoter-driven SV40 T-antigen and produced spontaneous multifold and multistage pancreatic islet tumors. RIP1-Tag2 positive mice were identified by PCR analysis of genomic DNA from tail biopsy. […] After 4 weeks of injection, mice of each group were sacrificed by CO2 and tumors were isolated and saved. The remaining mice were kept to calculate the survival rate.

[5] = test system: Panc-1 cells; test: MTS assay; settings: read-out: IC50 (cytotoxicity, MTS), 24 h
Method: MTS Assay. The human Panc-1 cells were seeded in 96-well plates at a density of 3000-5000 cells per well. […] Number of viable cells was assessed by MTS assay after 24 h. The IC50 values for cytotoxicity were calculated with WinNonlin software (Pharsight, Mountain View, Calif.).

[6] = test system: Panc-1 xenograft tumor; test: Panc-1 xenograft mouse model; type: in vivo, mice; settings: 3 mg/kg i.p.; for inhibition of tumor growth: after the last injection
Method: After the last injection, celastrol inhibited 80% of tumor growth (p<0.001) (FIG. 6A).
Xenograft Mouse Model. 4 to 6-week old nu/nu athymic female mice were obtained from Charles River Laboratories (Charles River, Wilmington, Mass.). The human Panc-1 cells (5-10×10^6) were mixed with reconstituted basement membrane (Collaborative Research, Bedford, Mass.) and implanted to the right and left flanks of the mice. Tumor volumes were calculated with the formula: width^2×length/2. When tumors reached 100 mm^3, animals were randomized into different groups for treatment (n=6/group).
Then, the dosing schedule was changed to one injection per three days. Tumor sizes and body weights were measured twice a week.

[7] = 3 mg/kg i.p. once every 3 days for four weeks, at 12th week

| Compound | level of Akt protein [1] | level of Cdk4 protein [2] | survival increase over control ([4]; 3 mg/kg i.p.) [days] | decrease of tumors in pancreas compared to the control group [4, 7] [%] | IC50 [5] [µM] | other results |
| --- | --- | --- | --- | --- | --- | --- |
| CC(C)C[C@@H](C=O)NC(=O)[C@H](CC(C)C)NC(=O)[C@H](CC(C)C)NC(=O)OCc1ccccc1 [MG132] (Cbz-Leu-Leu-Leu-aldehyde) | did not change the levels | did not change the levels |  |  |  |  |
| CC1=C(O)C(=O)C=C2C1=CC=C1[C@@]2(C)CC[C@@]2(C)[C@@H]3C[C@](C)(C(=O)O)CC[C@]3(C)CC[C@]12C [celastrol, (9b,13a,14b,20a)-3-Hydroxy-9,13-dimethyl-2-oxo-24,25,26-trinoroleana-1(10),3,5,7-tertraen-29-oic acid] |  |  | 12 | 30 | 3 | effect on Hsp90 protein levels [3]: no effect; median survival time ([4]; 3 mg/kg i.p.): 96 days; weight loss ([4]; 3 mg/kg i.p., RIP1-Tag2 mice): about 10%; decrease of Akt protein level ([1]; 5 μM, 24-h treatment): 80%; decrease of Cdk4 protein level ([2]; 5 μM, 24-h treatment): 70%; inhibition of tumor growth [6]: 80%; inhibition of tumor growth ([6]; listed as Celastrol): more than 80%; weight loss in mice ([6]; xenograft mice): 5% |
| COC1=C2C[C@@H](C)C[C@H](OC)[C@H](O)[C@@H](C)/C=C(\C)[C@H](OC(N)=O)[C@@H](OC)/C=C\C=C(/C)C(=O)NC(=CC1=O)C2=O [geldanamycin, reference compound] |  |  | 6 | 13 | 8 | decrease of metastatic tumors in mesenterium compared to the control group [4, 7]: 50% |
| CC(=O)N[C@@H](CSC(=O)[C@]1([C@@H](O)C(C)C)NC(=O)[C@H](C)[C@@H]1O)C(=O)O [lactacystin] | did not change the levels | did not change the levels |  |  |  |  |
